This passage reports TGI results from PubChem BioAssay (NCI).

Some test systems named below: LXFL 529 NSCLC; DMS 273 small cell lung; MDA-N; MDA-MB-435; HOP-18 NSCLC; SNB-78 CNS; M19-MEL melanoma; DU-145 prostate; RXF-631 renal.
What all share (experiment): DTP human tumour cell line panel, 48 h

“And” between values parts separate entries of the source, which are not always exact repeats. Identical values can stand only once.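 96-well plates; 48 h exposure; 5 concentrations. Endpoints by linear interpolation between flanking doses. Not reached: highest tested concentration assigned. TGI: total growth inhibition.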

As to `O=C(O)C1OC(n2cc(F)c(=O)[nH]c2=O)CC1O` (stereo not drawn), the TGI with LXFL 529 NSCLC, in the assay with DMS 273 small cell lung, in the assay with MDA-N, in the assay on MDA-MB-435, with HOP-18 NSCLC and with SNB-78 CNS was greater than 100 µM throughout. Further, the total growth inhibition concentration (TGI) with M19-MEL melanoma and in the assay with DU-145 prostate was greater than 100 µM throughout.

As for `CCOc1ccccc1N=Nc1ccc2oc(=O)c(C(=O)Nc3cccc(C)c3)cc2c1`, the TGI in the assay on LXFL 529 NSCLC is greater than 100 µM; with DMS 273 small cell lung, greater than 100 µM; with RXF-631 renal, greater than 100 µM; in the assay with SNB-78 CNS, 91.3 µM; in the assay with M19-MEL melanoma, 93.4 µM.

Consider `COc1cc(C(C)O)c[n+](CCc2c[nH]c3ccccc23)c1` (stereo not drawn), for which the TGI with LXFL 529 NSCLC, in the assay on DMS 273 small cell lung, with RXF-631 renal and in the assay with M19-MEL melanoma was greater than 100 µM each time.

For `COc1cc(C=C2C(=O)NC(=O)NC2=O)cc(OC)c1OC`, the TGI with LXFL 529 NSCLC, in the assay on DMS 273 small cell lung, in the assay with HOP-18 NSCLC, with SNB-78 CNS and in the assay with M19-MEL melanoma was greater than 100 µM throughout.

Take `CC1CC[C@]2(C(=O)O)CCC3(C)C(=CC(=O)C4[C@@]5(C)CCC(=O)C(C)(C)C5CC[C@]43C)[C@@H]2[C@H]1C` (stereo partly drawn): the TGI is greater than 100 µM with LXFL 529 NSCLC; 94.6 µM with HOP-18 NSCLC; greater than 100 µM with RXF-631 renal; greater than 100 µM in the assay on SNB-78 CNS; 71.3 µM in the assay with M19-MEL melanoma.

As to `COC1(OC)C2(Cl)C(Cl)=C(Cl)C1(Cl)C1C=CC=CC12` (stereo not drawn), the TGI is greater than 100 µM with LXFL 529 NSCLC; greater than 100 µM with DMS 273 small cell lung; 39.9 µM in the assay with RXF-631 renal; greater than 100 µM in the assay with SNB-78 CNS; greater than 100 µM in the assay with M19-MEL melanoma.

`CC1(C)C(=O)N(CCCCCCN2C(=O)C(C)(C)c3ccccc32)c2ccccc21`: the TGI in the assay on LXFL 529 NSCLC is greater than 100 µM; with DMS 273 small cell lung, greater than 100 µM; in the assay on HOP-18 NSCLC, greater than 100 µM; in the assay with SNB-78 CNS, greater than 100 µM; in the assay on M19-MEL melanoma, 65.2 µM.

Turning to `CC1(C)SCc2nc3ncccc3n21`, the TGI in the assay with LXFL 529 NSCLC, in the assay on RXF-631 renal, with SNB-78 CNS and with M19-MEL melanoma was greater than 100 µM throughout.

For the molecule `Cc1cccc(NC(=O)C(=O)C(C(=O)c2ccc3ccccc3c2)C2OC(=O)c3ccccc32)c1C` (stereo not drawn), the total growth inhibition concentration (TGI) in the assay on LXFL 529 NSCLC was 22.4 µM; in the assay on DMS 273 small cell lung, 39 µM; in the assay on RXF-631 renal, 29.8 µM; in the assay with SNB-78 CNS it was greater than 100 µM; in the assay on M19-MEL melanoma it was 21.9 µM.

`COc1cc2c(cc1OC)C(CC(=O)NN=C(C)C)NCC2` (stereo not drawn): the TGI with LXFL 529 NSCLC, in the assay on DMS 273 small cell lung, in the assay with HOP-18 NSCLC, in the assay with SNB-78 CNS and in the assay on M19-MEL melanoma was greater than 100 µM throughout.

As for `COc1cccc2c1C(=O)c1c(O)c3c(c(O)c1C2=O)C[C@@](O)(C(C)=O)C[C@@H]3OC1OC(C)C(O)C(N)C1Br` (stereo partly drawn), the TGI was 1.12 µM in the assay on LXFL 529 NSCLC; 0.268 µM and 0.151 µM in the assay on DMS 273 small cell lung; 0.63 µM in the assay with MDA-N; 1.13 µM with MDA-MB-435; 0.345 µM in the assay with HOP-18 NSCLC; 3.09 µM in the assay on SNB-78 CNS. The TGI is 0.364 µM and 0.328 µM in the assay on M19-MEL melanoma; 2.67 µM with DU-145 prostate.

With `Cc1cccc(NC(=O)/C(=N\NC(C)(C)C)C2NC(=S)NC2=O)c1C` (stereo not drawn), the TGI with LXFL 529 NSCLC, in the assay with RXF-631 renal, in the assay on SNB-78 CNS and in the assay with M19-MEL melanoma was greater than 100 µM each time.

On to `NC(N)=N/N=C(\c1nc2ccc([N+](=O)[O-])cc2[nH]c1=O)C(O)c1ccc([N+](=O)[O-])cc1` (stereo not drawn), for which the TGI with LXFL 529 NSCLC, in the assay on DMS 273 small cell lung, with RXF-631 renal, in the assay on SNB-78 CNS and in the assay with M19-MEL melanoma was greater than 100 µM in each case.

Regarding `NCCCCN(CCCN)/[N+]([O-])=N\O`, the TGI in the assay on LXFL 529 NSCLC, with DMS 273 small cell lung, with HOP-18 NSCLC, with SNB-78 CNS and in the assay with M19-MEL melanoma was greater than 100 µM in each case.

`O=C1OC(c2ccccc2)=N/C1=C\c1cccc2ccccc12`: the TGI in the assay on LXFL 529 NSCLC, in the assay with DMS 273 small cell lung, with HOP-18 NSCLC, with SNB-78 CNS and with M19-MEL melanoma was greater than 100 µM throughout.

Take `O=C(Cc1ccccc1)NN1C(=O)C(Cl)C1c1cc(Br)ccc1O` (stereo not drawn): the TGI is greater than 100 µM with LXFL 529 NSCLC; greater than 100 µM in the assay with DMS 273 small cell lung; greater than 100 µM in the assay on HOP-18 NSCLC; 91.8 µM in the assay with SNB-78 CNS; 23.3 µM with M19-MEL melanoma.

In the case of `COC(=O)C1=C(C)N(NC(=O)OC(C)(C)C)C(=O)C1=P(c1ccccc1)(c1ccccc1)c1ccccc1`, the TGI in the assay on LXFL 529 NSCLC, with DMS 273 small cell lung, with HOP-18 NSCLC, in the assay with SNB-78 CNS and in the assay on M19-MEL melanoma was greater than 100 µM each time.

As usually defined, the TGI is the concentration giving total growth inhibition. Lower therefore signals more potent growth arrest.
